Results: ChEMBL document CHEMBL2021825, “Dimerization of β-tryptase inhibitors, does it work for both basic and neutral P1 groups?” (Bioorg Med Chem Lett, 2012)
Active and inactive are the calls of the source. The rule behind the calls is not given here.

Key:
[1] = Inhibition of human recombinant beta-tryptase using chromogenic substrate S-2366
Homo sapiens = species: Homo sapiens; test: Inhibition of human recombinant beta-tryptase using chromogenic substrate S-2366 at 30 uM
[2] = system: Tryptase beta-1 (Homo sapiens), Q15661 [A190S]; test: Inhibition of human recombinant beta-tryptase A190S mutant using chromogenic substrate S-2366
Chain of Tryptase beta-1 (Homo sapiens), Q15661 [A190S] (Q15661 whole entry A190S): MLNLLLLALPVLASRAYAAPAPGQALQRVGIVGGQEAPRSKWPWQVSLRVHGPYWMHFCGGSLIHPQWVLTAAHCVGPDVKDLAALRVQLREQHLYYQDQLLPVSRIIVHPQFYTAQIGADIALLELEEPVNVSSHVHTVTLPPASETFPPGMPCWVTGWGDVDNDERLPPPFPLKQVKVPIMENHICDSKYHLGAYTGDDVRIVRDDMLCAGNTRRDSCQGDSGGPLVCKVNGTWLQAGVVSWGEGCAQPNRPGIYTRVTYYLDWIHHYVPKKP

Structure (SMILES)	Ki [1]	also measured
NCc1cccc(C2CCN(C(=O)c3cccc(-c4ccc5c(c4)NC(c4c[nH]c6cc(-c7cccc(C(=O)N8CCC(c9cccc(CN)c9)CC8)c7)ccc46)C5)c3)CC2)c1 (stereo not drawn)	3 nM	
NCc1cccc(C2CCN(C(=O)c3cccc(CCCCc4cccc(C(=O)N5CCC(c6cccc(CN)c6)CC5)c4)c3)CC2)c1	2 nM	
N=C(N)c1cccc(C2CCN(C(=O)c3cccc(CCCCc4cccc(C(=O)N5CCC(c6cccc(C(=N)N)c6)CC5)c4)c3)CC2)c1	0.3 nM	
NCc1cccc(C2CCN(C(=O)c3cccc(C#CC#Cc4cccc(C(=O)N5CCC(c6cccc(CN)c6)CC5)c4)c3)CC2)c1	0.34 nM	
NCc1cccc(C2CCN(C(=O)c3ccccc3)CC2)c1	1900 nM	
N=C(N)c1cccc(C2CCN(C(=O)c3cccc(C#CC#Cc4cccc(C(=O)N5CCC(c6cccc(C(=N)N)c6)CC5)c4)c3)CC2)c1	0.29 nM	
O=C1CN(Cc2cc(-c3ccc(Cl)s3)on2)CCN1CCCCCCCCCCN1CCN(Cc2cc(-c3ccc(Cl)s3)on2)CC1=O		inhibition (Homo sapiens): inactive
Nc1ncnc2cc(CN3CCN(Cc4cc(-c5ccc(Cl)s5)on4)CC3=O)ccc12		inhibition [2]: inactive
